Measurements published in the supplement of paper PMC3974653.
Structures can show the parent of a compound that is named as a salt.

Tested on: MTT (mouse pheochromocytoma)
Experiment: IC50 of cell viability (ATP content)
Conditions: (24 or 48 h)
Procedure, shortened: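 After overnight culture at 37°C, 5% CO2 in white 1536-well plates, MTT mouse pheochromocytoma cells were given 23 nl of library compound in DMSO by pintool across 8 concentrations, spanning final 0.5 nM to 46 µM. Following 24 or 48 hrs, CellTiter-Glo luminescence was read after 15 minutes and normalised against positive-control (100%) and DMSO (0%) wells. A four-parameter logistic model provided the IC50.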

Row | Compound | IC50 of cell viability [µM]
1 | CCCC(=O)O[C@@]1(CC[C@H]2C3C[C@H](F)\C4=C\C(=O)\C=C/C4(C)[C@@]3(F)[C@@H](O)CC12C)C(=O)COC(C)=O (some centres not stated) [DIFLUPREDNATE] | > 46
2 | CC[C@H]1OC(=O)[C@H](C)[C@@H](O[C@H]2C[C@@](C)(OC)[C@@H](O)[C@H](C)O2)[C@H](C)[C@@H](O[C@@H]2O[C@H](C)C[C@H](N(C)C)[C@H]2O)[C@](C)(O)C[C@@H](C)[C@@H]2N[C@@H](COCCOC)O[C@H]([C@H]2C)[C@]1(C)O [DIRITHROMYCIN] | > 46
3 | Cc1cc(O)cc2c1O[C@](C)(CCC[C@H](C)CCC[C@H](C)CCCC(C)C)CC2 [DELTA-TOCOPHEROL, D-] | > 46
4 | CCCCCCC(=O)CCCCCC/C=C/C[C@@H](O)[C@H](O)[C@@](N)(CO)C(=O)O [Myriocin from Mycelia sterilia] | > 46
5 | CC(C)(C)C(=O)OCOC(=O)C1N2C(=O)CC2[S+](=O)([O-])C1(C)C (configuration not stated) [Pivoxil Sulbactam] | > 46
6 | NNC(=O)c1ccncc1 [Isoniazid] | > 46
7 | O=C(O)c1cc(-c2ccccc2)nc2ccccc12 [CINCHOPHENUM] | > 46
8 | NC(=O)c1ncn(C2OC(CO)C(O)C2O)n1 (configuration not stated) [RIBAVIRIN] | > 46
9 | CN1C[C@@H](NS(=O)(=O)N(C)C)C[C@@H]2c3cccc4c3c(cn4C)C[C@H]21 [MESULERGINE] | > 46
10 | N=C1NC(=N)c2cc3ccccc3cc21 [1,3-Diiminobenz[f]isoindoline] | > 46
11 | NC(=O)C1=CC=[N+](C\C2=C(\[N@]3[C@@H](SC2)[C@H](NC(=O)CC4=CC=CS4)C3=O)C([O-])=O)C=C1 [Cefalonium] | > 46
12 | CC(=O)Oc1cc2c(s1)CCN(C(C(=O)C1CC1)c1ccccc1F)C2 (configuration not stated) [Prasugrel Hydrochloride] | > 46
13 | CCCCCCCCCCCCCCCC(=O)OCC(COP(=O)(O)OCC[N+](C)(C)C)OC(=O)CCCCCCCCCCCCCCC (configuration not stated) [COLFOSCERIL PALMITATE] | > 46
14 | Cc1nc(Nc2ncc(C(=O)Nc3c(C)cccc3Cl)s2)cc(N2CCN(CCO)CC2)n1 [DASATINIB] | > 46
15 | CNCCCN1c2ccccc2CCc2ccccc21 [Desipramine hydrochloride] | > 46
16 | C[N+]1(CCF)[C@@H]2CC[C@@H]1CC(OC(=O)C(O)(c1ccccc1)c1ccccc1)C2 (some centres not stated) [Flutropium] | > 46
17 | COc1ccc2c(C(=O)c3ccc(Cl)cc3)c(C)n(CC(=O)O)c2c1 [Clometacine] | > 46
18 | Cl.NCC(=O)CCC(=O)O [AMINOLEVULINIC ACID HYDROCHLORIDE] | > 46
19 | CC(Cc1cccc(C(F)(F)F)c1)NCCOC(=O)c1ccccc1.Cl (configuration not stated) [BENFLUOREX HYDROCHLORIDE] | > 46
20 | CC1=C(C\C2=N\CCN2)C3=C(S1)C=CC=C3.OC(=O)C(O)=O [Benazoline oxalate] | > 46
21 | CC/1=C/CC2CC1C2(C)C (stereo not drawn) [alpha-Pinene] | > 46
22 | COc1cnc(N[S+](=O)([O-])c2ccc(N)cc2)nc1 [Sulfameter] | > 46
23 | CCN(CC)CCc1c[nH]c2ccccc12 [N,N-Diethyltryptamine] | > 46
24 | NC(=O)C[C@@H](N)C(=O)O [D-ASPARAGINE] | > 46

Row | Compound | IC50 of cell viability [µM]
25 | COc1ccc(/C=C/C(=O)Nc2ccccc2C(=O)O)cc1OC [Tranilast] | > 46
26 | C[C@]12C[C@H](O)[C@H]3[C@@H](CCC/4=C/C(=O)CC[C@]34C)[C@@H]1CC[C@@H]2C(=O)CO [Corticosterone] | > 46
27 | CNC(C)Cc1ccccc1OC (configuration not stated) [Methoxyphenamine] | > 46
28 | NCCNCCN [Diethylenetriamine] | > 46
29 | OC1\N=C(C2=CC=CC=C2)/C3=CC(=CC=C3NC1=O)Cl (configuration not stated) [(?)-Oxazepam] | > 46
30 | CCC(C)N1\N=C/N(C1=O)C2=CC=C(C=C2)N3CCN(CC3)C4=CC=C(OCC5COC(C[N]6C=NC=N6)(O5)C7=CC=C(Cl)C=C7Cl)C=C4 (configuration not stated) [itraconazole] | > 46
31 | CC[N+](C)(CC)CCOC(=O)C(O)(c1ccccc1)c1ccccc1 [METHYLBENACTYZIUM BROMIDE] | > 46
32 | Oc1c(Br)cc(Br)cc1Br [2,4,6-Tribromophenol] | > 46
33 | O=[S+]([O-])(O)CCC[S+](=O)([O-])O.[NaH] [1,3-PROPANEDISULFONIC ACID, DISODIUM SALT] | > 46
34 | OCC(CO)NC1C[C@](O)(CO)[C@@H](O)[C@H](O)[C@H]1O (some centres not stated) [voglibose] | > 46
35 | C[N+]1(C)[C@@H]2CC[C@@H]1CC(OC(=O)[C@@H](CO)c1ccccc1)C2.O=[N+]([O-])[O-] (some centres not stated) [Methylatropine nitrate] | > 46
36 | CCC(=O)c1ccc(O)cc1 [P-HYDROXYPROPIOPHENONE] | > 46
37 | O=C(CCCN1CCC(O)(c2ccc(Cl)cc2)CC1)c1ccc(F)cc1 [HALOPERIDOL] | > 46
38 | CC(=O)c1ccc2c(c1)N(CCCN(C)C)c1ccccc1S2 [Acetopromazine maleate salt] | > 46
39 | O=C1CCO1 [beta-Propiolactone] | > 46
40 | COc1cc2nc(N3CCN(C(=O)[C@H]4CCCO4)CC3)nc(N)c2cc1OC [Terazosin hydrochloride] | > 46
41 | Cc1ccc(C(=O)c2cc(O)c(O)c([N+](=O)[O-])c2)cc1 [TOLCAPONE] | > 46
42 | CCOC(=O)\C1=C(/C)N\C(=C(/C1C2=CC=CC(=C2)[N+]([O-])=O)C(=O)OC)C (configuration not stated) [NITRENDIPINE] | > 46
43 | CCOc1ccc(NC(=S)Nc2ccc(OCC)cc2)cc1 [Etocarlida] | > 46
44 | CC(O)C(O)[C@H]1CNc2nc(N)nc(O)c2N1 (some centres not stated) [Sapropterin] | > 46
45 | Cc1ccc(Nc2nccc(N(C)c3ccc4c(C)n(C)nc4c3)n2)cc1[S+](N)(=O)[O-] [Pazopanib] | > 46
46 | N#C/C(=C1/SCC(c2ccccc2Cl)S1)n1ccnc1 (configuration not stated) [LANOCONAZOLE] | > 46
47 | C[C@H](CCC(=O)[O-])[C@H]1CC[C@H]2[C@@H]3CC[C@@H]4C[C@H](O)CC[C@]4(C)[C@H]3C[C@H](O)[C@]12C [Deoxycholic acid sodium salt] | > 46
